# BindingDB's records for doi:10.1021/acsmedchemlett.7b00164 (Shenyang Pharmaceutical University, 2017)
# Test: Inhibition of PDGFR in mouse NIH/3T3 cells assessed as reduction in recombinant human PDGF-BB-induced cell proliferation after 42 hrs by cell titer 96 aqueous one solution based assay
row,IC50 [nM],SMILES
1,110,COC(=O)c1ccc2c(c1)NC(=O)/C2=C(\Nc1ccc(N2C(=O)CC[C@H]2CN2CCN(C)CC2)cc1)c1ccccc1
2,97,COC(=O)c1ccc2c(c1)NC(=O)/C2=C(\Nc1ccc(N2C(=O)CC[C@@H]2CN2CCN(C)CC2)cc1)c1ccccc1
3,100,COC(=O)c1ccc2c(c1)NC(=O)/C2=C(\Nc1ccc2c(c1)N(C(=O)Cn1cncn1)CC2)c1ccccc1
4,110,COC(=O)c1ccc2c(c1)NC(=O)/C2=C(\Nc1ccc(N2CCC(CN3CCN(C)CC3)C2=O)cc1)c1ccccc1 (centres undefined)
5,100,COC(=O)c1ccc2c(c1)NC(=O)/C2=C(\Nc1ccc2c(c1)N(C(=O)CN1CCOCC1)CC2)c1ccccc1
6,260,COC(=O)c1ccc2c(c1)NC(=O)/C2=C(\Nc1ccc2c(c1)N(C(=O)CN1CCCC1=O)CC2)c1ccccc1
7,150,COC(=O)c1ccc2c(c1)NC(=O)/C2=C(\Nc1ccc2c(c1)N(C(=O)CN1CC(C)OC(C)C1)CC2)c1ccccc1 (centres undefined)
8,110,COC(=O)c1ccc2c(c1)NC(=O)/C2=C(\Nc1ccc2c(c1)N(C(=O)Cn1cccn1)CC2)c1ccccc1
9,85,COC(=O)c1ccc2c(c1)NC(=O)/C2=C(\Nc1ccc(N(C)C(=O)CN2CCN(C)CC2)cc1)c1ccccc1 [BIBF-1120]
